The values that follow come from ChEMBL document CHEMBL1201862, “PubChem BioAssay data set” (2004).

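Values below derive from 48-hour exposures of cells grown in 96-well plates, with endpoints linearly interpolated between the two concentrations bracketing the appropriate inhibition level. GI50 marks 50% less growth.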 Active and inactive are the calls of the source. Cut-off read from the data, not from the text of the source: active = GI50 up to about 1.1 µM and inactive = higher. Bounds are passed on as bounds.

Some test systems named below: SF-539; Hs-578T; K562; Malme-3M; HL-60; OVCAR-8; SNB-19; SNB-75; NCI-H460; HCC 2998; SK-MEL-5; OVCAR-3; CCRF-CEM; HOP-92; UO-31; MCF7; PC-3; HOP-62; EKVX; MDA-N.
Common to all, as to experiment: NCI tumour cell line growth inhibition, 48 h

As for `CC(=O)C(C)CCOC1(C)OCCC1C` (stereo unspecified), the GI50 with SF-539, with Hs-578T, with K562, in the assay on Malme-3M, with HL-60 and in the assay on OVCAR-8 was > 100 µM (inactive) each time. The GI50 in the assay on SNB-19, in the assay with SNB-75, with NCI-H460, with HCC 2998, in the assay with SK-MEL-5 and in the assay on OVCAR-3 was > 100 µM (inactive) throughout. In addition, the GI50 in the assay on CCRF-CEM, with HOP-92, with UO-31, in the assay on MCF7, in the assay on PC-3 and in the assay on HOP-62 was > 100 µM (inactive) each time. The GI50 in the assay with EKVX is > 100 µM (inactive).
`CC1C(c2ccc3c(c2)OCO3)c2cc3c(cc2OC1N1CCCCC1)OCO3` (stereo unspecified): the GI50 with SF-539 is 50.8 µM (inactive); in the assay on Hs-578T, 35.4 µM (inactive); in the assay with K562, 35.7 µM (inactive); in the assay with MDA-N, 20.8 µM (inactive); in the assay with OVCAR-8 it was > 100 µM (inactive); with SNB-19 it was 48.9 µM (inactive). Besides, the GI50 in the assay on NCI-H460 is 77.8 µM (inactive); in the assay with HCC 2998 it was 20 µM (inactive); in the assay with SK-MEL-5 it was 54.6 µM (inactive); with OVCAR-3, 41.6 µM (inactive); in the assay on CCRF-CEM it was 35.2 µM (inactive); in the assay with UO-31, 77.1 µM (inactive). The GI50 in the assay on MCF7 was 65.9 µM (inactive); in the assay on PC-3, 37.5 µM (inactive); in the assay with HOP-62, > 100 µM (inactive); in the assay on EKVX, 66.2 µM (inactive).
Take `COC(=O)Cc1c(C2=Nc3ccccc3C2(O)CC(=O)OC)[nH]c2ccccc12` (stereo unspecified): the GI50 with SF-539 was 29.6 µM (inactive); in the assay with Hs-578T, 24.2 µM (inactive); in the assay with K562, 27 µM (inactive); with MDA-N, > 100 µM (inactive); in the assay with Malme-3M, 22.6 µM (inactive); in the assay on HL-60 it was 22 µM (inactive). The GI50 in the assay on OVCAR-8 was 49.3 µM (inactive); in the assay on SNB-19, 55.8 µM (inactive); in the assay on SNB-75 it was > 100 µM (inactive); in the assay with NCI-H460, > 100 µM (inactive); with SK-MEL-5 it was 60.4 µM (inactive); in the assay on OVCAR-3, 62.1 µM (inactive). In addition, the GI50 was 20.1 µM (inactive) in the assay on CCRF-CEM; 26.5 µM (inactive) with HOP-92; 68.5 µM (inactive) in the assay with UO-31; 30 µM (inactive) in the assay on PC-3; > 100 µM (inactive) in the assay on HOP-62; 36.6 µM (inactive) with EKVX.
`c1ccc(C(/C(=N/c2ccc(Cc3ccc(/N=C(\C(c4ccccc4)c4ccccc4)N4CC4)cc3)cc2)N2CC2)c2ccccc2)cc1`: the GI50 with SF-539 is 16.3 µM (inactive); in the assay with Hs-578T, 10.6 µM (inactive); in the assay with K562, 2.33 µM (inactive); in the assay on Malme-3M it was 14.9 µM (inactive); in the assay on HL-60, 4.23 µM (inactive); in the assay with OVCAR-8, 10.7 µM (inactive). Also, the GI50 in the assay with SNB-19 was 13.1 µM (inactive); in the assay with NCI-H460, 1.78 µM (inactive); with HCC 2998, 10.1 µM (inactive); with SK-MEL-5, 5.04 µM (inactive); in the assay with OVCAR-3, 3.66 µM (inactive); with CCRF-CEM, 3.18 µM (inactive). The GI50 with UO-31 is 2.6 µM (inactive); in the assay with MCF7, 3.1 µM (inactive); with PC-3, 3.83 µM (inactive); with HOP-62, 12.8 µM (inactive); in the assay with EKVX it was 10.1 µM (inactive).
Turning to `N#Cc1ccc(CSC2=C(c3ccc(Cl)cc3)S/C(=C3\SC(SCc4ccc(C#N)cc4)=C(c4ccc(Cl)cc4)S3)S2)cc1`, the GI50 in the assay on SF-539, with Hs-578T, with K562, with MDA-N, in the assay on Malme-3M and in the assay with HL-60 was > 100 µM (inactive) each time. The GI50 with OVCAR-8, in the assay with SNB-19, in the assay on NCI-H460, with HCC 2998, in the assay with SK-MEL-5 and in the assay on OVCAR-3 was > 100 µM (inactive) in each case. Further, the GI50 in the assay with CCRF-CEM, in the assay on MCF7, in the assay on PC-3, in the assay with HOP-62 and in the assay with EKVX was > 100 µM (inactive) in each case.
As to `O=c1c(-c2ccccc2)c(SCCO)n(-c2ccccc2)c(=S)n1-c1ccccc1`, the GI50 in the assay with Hs-578T is 99.5 µM (inactive); in the assay on K562 it was > 100 µM (inactive); in the assay with MDA-N, > 100 µM (inactive); in the assay on Malme-3M, > 100 µM (inactive); in the assay with HL-60 it was > 100 µM (inactive); with OVCAR-8 it was > 100 µM (inactive). In addition, the GI50 was > 100 µM (inactive) in the assay on SNB-19; 39.6 µM (inactive) with SNB-75; > 100 µM (inactive) in the assay with NCI-H460; > 100 µM (inactive) in the assay with SK-MEL-5; > 100 µM (inactive) in the assay on OVCAR-3; > 100 µM (inactive) in the assay on CCRF-CEM. The GI50 in the assay on UO-31, in the assay with MCF7, in the assay on PC-3, in the assay with HOP-62 and in the assay on EKVX was > 100 µM (inactive) each time.
With `CC(C)N/C(=N\C#N)NS(=O)(=O)c1cnccc1NC1CCCCCCC1`, the GI50 in the assay with Hs-578T, in the assay with K562, in the assay on MDA-N, in the assay with Malme-3M, with OVCAR-8 and in the assay on SNB-19 was > 100 µM (inactive) in each case. Besides, the GI50 in the assay with SNB-75, in the assay with HCC 2998, in the assay with SK-MEL-5, in the assay with OVCAR-3, in the assay with CCRF-CEM and in the assay with UO-31 was > 100 µM (inactive) throughout. The GI50 in the assay on MCF7, in the assay on PC-3, in the assay on HOP-62 and with EKVX was > 100 µM (inactive) throughout.
For `O=C(NCCNCCCNC(=O)c1cc(-c2ccccc2)nc2ccccc12)c1cccc(O)c1O`, the GI50 with SF-539 is 2.48 µM (inactive); in the assay on Hs-578T, 13.8 µM (inactive); in the assay with K562 it was 2 µM (inactive); in the assay on Malme-3M it was 3.82 µM (inactive); with HL-60, 3.21 µM (inactive); in the assay with OVCAR-8 it was 2.38 µM (inactive). The GI50 with SNB-19 was 2.1 µM (inactive); in the assay on SNB-75, 10.6 µM (inactive); in the assay with NCI-H460 it was 2.36 µM (inactive); in the assay on HCC 2998, 3.73 µM (inactive); in the assay with SK-MEL-5 it was 1.36 µM (inactive); in the assay on OVCAR-3, 2.38 µM (inactive). The GI50 in the assay with CCRF-CEM was 0.697 µM (active); in the assay with HOP-92, 14.9 µM (inactive); in the assay with UO-31, 3.3 µM (inactive); with MCF7, 3.3 µM (inactive); in the assay with PC-3 it was 5.94 µM (inactive); in the assay on HOP-62, 1.05 µM (active). Further, the GI50 in the assay on EKVX is 24.4 µM (inactive).
Consider `Oc1ccc(Cl)cc1/N=N\c1c(O)ccc2ccccc12`, for which the GI50 is > 100 µM (inactive) with Hs-578T; > 100 µM (inactive) in the assay on K562; > 100 µM (inactive) in the assay with MDA-N; 22.2 µM (inactive) in the assay on Malme-3M; 78.9 µM (inactive) with HL-60; > 100 µM (inactive) in the assay with OVCAR-8. The GI50 in the assay on SNB-19 was > 100 µM (inactive); with SNB-75 it was > 100 µM (inactive); in the assay on SK-MEL-5 it was 92.7 µM (inactive); in the assay on OVCAR-3, > 100 µM (inactive); in the assay with CCRF-CEM, > 100 µM (inactive); with HOP-92, > 100 µM (inactive). For the same molecule, the GI50 in the assay with UO-31, in the assay with PC-3, in the assay on HOP-62 and with EKVX was > 100 µM (inactive) in each case.
In the case of `OC(/C(=N/c1ccccc1)c1ccccc1)c1ccccc1` (stereo unspecified), the GI50 in the assay on SF-539 was 11.3 µM (inactive); in the assay with Hs-578T it was 2.29 µM (inactive); in the assay with K562, 3.85 µM (inactive); in the assay on Malme-3M, 2.22 µM (inactive); in the assay on HL-60, 2.94 µM (inactive); with SNB-19, 6.52 µM (inactive). The GI50 in the assay with SNB-75 is 5.6 µM (inactive); with NCI-H460 it was 6.5 µM (inactive); in the assay on SK-MEL-5, 2.07 µM (inactive); with OVCAR-3 it was 2.66 µM (inactive); in the assay on CCRF-CEM, 3.32 µM (inactive); in the assay on HOP-92, 4.05 µM (inactive). Also, the GI50 in the assay with UO-31 is 18 µM (inactive); in the assay on MCF7, 5.62 µM (inactive); with HOP-62 it was 17.1 µM (inactive); in the assay on EKVX, 2.48 µM (inactive).
On to `CC(C)(C)OC(=O)NNC(=O)C1Cc2ccccc2OC1=O` (stereo unspecified), for which the GI50 with SF-539, in the assay on Hs-578T, in the assay with K562, in the assay on MDA-N, in the assay on Malme-3M and in the assay with OVCAR-8 was > 100 µM (inactive) each time. In addition, the GI50 with SNB-19, with NCI-H460, in the assay with HCC 2998, in the assay on SK-MEL-5, in the assay with OVCAR-3 and in the assay on UO-31 was > 100 µM (inactive) throughout. The GI50 in the assay on PC-3, in the assay on HOP-62 and with EKVX was > 100 µM (inactive) in each case.
